Results: patent publication US20250140486A1, “FUSED AROMATIC MOLECULES AS ELECTRODE MATERIALS” (Massachusetts Institute of Technology, priority 2021, published 2025)

Test: Solubility of the solids in organic and aqueous media / common solvents
Format: physicochemical

Nc1c(N)c(=O)c2[nH]c3c(=O)c(N)c(N)c(=O)c3[nH]c2c1=O [BTABQ, tetraamino-dihydrophenazine-1,4,6,9-tetrone]
solubility (form insoluble solids) (in both organic and aqueous media): insoluble
solubility (in common NMR solvents): insoluble
solubility (in common organic solvents): highly insoluble
